Data reported in patent US11098294B2, “Anti-inflammatory peptides and composition comprising same” (GemVax & KAEL Co., Ltd., priority 2012, dated 2021).

Key:
TNF-α [1] = assay: TNF-α inhibitory effect in PBMC-derived monocyte (ELISA); assay type: cell-based, human; conditions: PBMC-derived monocytes, 4 μM peptide 2 hrs; for TNF-α inhibiting effect compared to the group treated with LPS and estrogen: LPS 10 ng/ml, estrogen 20 nM; for TNF-α inhibiting effect compared to the control group treated with only LPS: LPS 10 ng/ml 2 hours
Procedure: PBMC (peripheral blood mononuclear cells) layer was separated from blood samples (50 ml) collected in healthy subjects using Biocoll Separating Solution (Biochrom AG, Berlin, Germany). The collected PBMC were enriched in RPMI 1640 medium containing 20% human serum for 30 mins, and then transferred to 100-mm polystyeren cell culture plate coated with human serum for incubation for 2 hrs at 37° C., 5% CO^2 incubator. Monocytes were detached from the bottom of the plate using cold PBS, and incubated to reach the number of 1×10^5 cell/well in 96-well plate with RPMI 1640 medium (supplemented with penicillin-streptomycin; 100 mg/ml, human serum; 20%) over night.
ELISA was performed to find out how the peptides of the PEP RIA series influence TNF-α level. PBMC-derived monocytes were incubated to reach the number of 1×10^5 cells per well in a 96-well plate and then treated with LPS (lipopolysaccharide; 10 ng/ml, Sigma) for 2 hours. To the monocytes that were washed three times with PBS, OPTI-MEM culture medium was added to induce cell starvation for an hour, 4 μM of the peptide was taken out and incubated for 2 hours. There were three negative control groups. The first group was not treated with anything. The second group that was treated with estrogen (in this experiment, estradiol was used as a kind of estrogen). The third group was treated with LPS (10 ng/ml) or with LPS (10 ng/ml) as well as estrogen (20 nM). PEP1 that was confirmed to have TNF-α inhibiting activity was used as a positive control to measure TNF-α inhibiting activity. After incubation, TNF-α was measured by following the ELISA kit manual (R&D, Minneapolis, Minn., USA). The details of quantification method can be found in Experiment 2.2 of Example 1.
Using the method stated above, Peptides with TNF-α inhibiting effect were screened. PBMC-derived monocytes were stimulated with LPS (10 ng/ml), which is endotoxin, for 2 hours and were induced to starve by adding OPTI-MEM for 1 hour. After that, 4 μM of 161 peptides were treated and incubated for 2 hrs. The amount of TNF-α in the cell culture medium was measured using ELISA, and the peptides with TNF-α inhibiting effect were screened by comparing to the negative and positive controls (FIG. 1 to FIG. 16).

TNF-α [2] = assay: TNF-α level in THP1 cell line differentiated by PMA (ELISA); assay type: cell-based, human; conditions: THP-1 differentiated by PMA, 1 μM peptide 1 hour; for reduction of TNF-α level compared to control group treated only with LPS: LPS 10 ng/ml 2 hours; for reduction of expression level of TNF-α compared to group treated with LPS and estrogen: LPS 10 ng/ml
Procedure: Experiment was carried out using THP-1 cell line (American Type Culture Collection (ATCC), Manassas, Va., USA) which is human acute monocytic leukemia.
THP-1 cells were incubated to reach the number of 1×10^5 cells per well in a 96-well plate with RPMI 1640 medium for 24 hrs, followed by addition of […] of PMA (phorbol 12-myristate 13-acetate) for the differentiation into macrophage. After differentiation of THP-1 into macrophage by PMA for a day, LPS was treated for 2 hrs and washed off. Starvation for an hour and PEP1 treatment followed.
THP-1 cell differentiated by PMA was treated with LPS (lipopolysaccharide; 10 ng/ml, Sigma) for 2 hours, followed by 2 times washes with PBS. To the cells, OPTI-MEM culture medium was added to induce cell starvation for an hour, and 1 μM of 161 peptides was taken out and incubated for an hour. After incubation, TNF-α level was measured by using the ELISA kit and the peptides which reduce the TNF-α level were screened (FIG. 17 to FIG. 35).

Row | Sequence | TNF-α inhibiting effect compared to the group treated with LPS and estrogen (TNF-α [1]) | reduction of TNF-α level compared to control group treated only with LPS (TNF-α [2]) | TNF-α inhibiting effect compared to the control group treated with only LPS (TNF-α [1]) | reduction of expression level of TNF-α compared to group treated with LPS and estrogen (TNF-α [2])
1 | RTRGPSDRGFCVVSPARPAE (listed as Homo sapiens) [SEQ ID NO: 61] | showed TNF-α inhibiting effect |  |  | 
2 | RFMCHHAVRIRGKSYVQCQG (listed as Homo sapiens) [SEQ ID NO: 146] | showed TNF-α inhibiting effect | appeared to reduce the TNF-α level | showed TNF-α inhibiting effect | 
3 | GTRHSHPSVGRQHHAGPPST (listed as Homo sapiens) [SEQ ID NO: 120] | showed TNF-α inhibiting effect |  |  | 
4 | EDTDPRRLVQLLRQHSSPWQ (listed as Homo sapiens) [SEQ ID NO: 70] | showed TNF-α inhibiting effect | appeared to reduce the TNF-α level |  | 
5 | QWLCHQAFLLKLTRHRVTTV (QWLCHQAFLLKLTRHRVTYV; listed as Homo sapiens) [SEQ ID NO: 159] |  |  |  | reduce the expression level of TNF-α
6 | SVLNYERARR (listed as Homo sapiens) [SEQ ID NO: 15] |  | appeared to reduce the TNF-α level |  | reduce the expression level of TNF-α
7 | GLLGASVLG (listed as Homo sapiens) [SEQ ID NO: 29] | showed TNF-α inhibiting effect | appeared to reduce the TNF-α level |  | reduce the expression level of TNF-α
8 | RTFVLRVRAQDPPPE (listed as Homo sapiens) [SEQ ID NO: 7] |  | appeared to reduce the TNF-α level |  | reduce the expression level of TNF-α
9 | LGLDDIHRAWRTFVLRVRAQ (listed as Homo sapiens) [SEQ ID NO: 82] | showed TNF-α inhibiting effect |  |  | 
10 | MPRAPRCRAVRSLLRSHYRE (listed as Homo sapiens) [SEQ ID NO: 48] | showed TNF-α inhibiting effect |  |  | 
11 | VLGLDDIHRA (listed as Homo sapiens) [SEQ ID NO: 12] |  | appeared to reduce the TNF-α level |  | reduce the expression level of TNF-α
12 | GASVLGLDDI (listed as Homo sapiens) [SEQ ID NO: 13] |  | appeared to reduce the TNF-α level |  | reduce the expression level of TNF-α
13 | QMPAHGLFPWCGLLLDTRTL (listed as Homo sapiens) [SEQ ID NO: 94] |  | appeared to reduce the TNF-α level |  | 
14 | YERARRPGL (listed as Homo sapiens) [SEQ ID NO: 10] |  | appeared to reduce the TNF-α level |  | reduce the expression level of TNF-α
15 | CGPPLYQLGAATQARPPPHA (listed as Homo sapiens) [SEQ ID NO: 114] |  | appeared to reduce the TNF-α level |  | 
16 | LLVTPHLTHAKTFLRTLVRG (listed as Homo sapiens) [SEQ ID NO: 149] | showed TNF-α inhibiting effect | appeared to reduce the TNF-α level | showed TNF-α inhibiting effect | 
17 | LKRVQLRELSEAEVRQ (listed as Homo sapiens) [SEQ ID NO: 47] | showed TNF-α inhibiting effect |  |  | 

Row | Sequence | TNF-α inhibiting effect compared to the group treated with LPS and estrogen (TNF-α [1]) | reduction of TNF-α level compared to control group treated only with LPS (TNF-α [2]) | TNF-α inhibiting effect compared to the control group treated with only LPS (TNF-α [1]) | reduction of expression level of TNF-α compared to group treated with LPS and estrogen (TNF-α [2])
18 | GVPLGLPSPGARRRGGSASR (GVPLGLPAPGARRRGGSASR; listed as Homo sapiens) [SEQ ID NO: 116] |  |  | showed TNF-α inhibiting effect | 
19 | LFSVLNYERARRPGLLGASV (listed as Homo sapiens) [SEQ ID NO: 81] | showed TNF-α inhibiting effect |  |  | 
20 | RFHACVLQLPFHQQVWKNPT (listed as Homo sapiens) [SEQ ID NO: 156] |  |  |  | reduce the expression level of TNF-α
21 | RLPQRYWQMRPLFLELLGNH (listed as Homo sapiens) [SEQ ID NO: 67] |  | appeared to reduce the TNF-α level |  | 
22 | LLGASVLGL (listed as Homo sapiens) [SEQ ID NO: 11] |  |  | showed TNF-α inhibiting effect | 
23 | FHQQVWKNPTFFLRVISDTA (listed as Homo sapiens) [SEQ ID NO: 99] | showed TNF-α inhibiting effect |  |  | 
24 | SVLGLDDIH (listed as Homo sapiens) [SEQ ID NO: 30] |  | appeared to reduce the TNF-α level |  | reduce the expression level of TNF-α
25 | WMPGTPRRLPRLPQRYWQMR (listed as Homo sapiens) [SEQ ID NO: 124] |  |  | showed TNF-α inhibiting effect | 
26 | DEALGGTAFVQMPAHGLFPW (listed as Homo sapiens) [SEQ ID NO: 151] |  | appeared to reduce the TNF-α level |  | 
27 | NRGFKAGRNMRRKLFGVLRL (listed as Homo sapiens) [SEQ ID NO: 96] | showed TNF-α inhibiting effect |  | showed TNF-α inhibiting effect | 
28 | FFLRVISDTASLCYSILKAK (listed as Homo sapiens) [SEQ ID NO: 157] |  |  |  | reduce the expression level of TNF-α
29 | AERLTSRVKALFSVL (listed as Homo sapiens) [SEQ ID NO: 9] |  | appeared to reduce the TNF-α level | showed TNF-α inhibiting effect | reduce the expression level of TNF-α
30 | NKLFAGIRRDGLLLRLVDDF (listed as Homo sapiens) [SEQ ID NO: 148] | showed TNF-α inhibiting effect | appeared to reduce the TNF-α level | showed TNF-α inhibiting effect | 
31 | SGPRRRLGCERAWMHSVREA (SGPRRRLGCERAWNHSVREA; listed as Homo sapiens) [SEQ ID NO: 115] |  |  | showed TNF-α inhibiting effect | 
32 | SRPPRPWDTPCPPVYAETKH (listed as Homo sapiens) [SEQ ID NO: 121] | showed TNF-α inhibiting effect |  |  | 
33 | AQCPYGVLLKTHCPLRAAVT (listed as Homo sapiens) [SEQ ID NO: 68] |  | appeared to reduce the TNF-α level |  | 
